For the experiment, the target named is T1, HPK1 (Homo sapiens, UniProt Q92918).
T1 construct: A HiBiT tag was introduced by CRISPR on the N terminus of HPK1 in Jurkat cells; host or cells: Jurkat cells (ATCC TIB-152), monoclonal line with CRISPR knock-in of HiBiT at the endogenous HPK1 locus
The experiment can be described thus: HPK1 Cellular HiBit Degradation Assay. The settings on record: HiBiT HPK1 Jurkat cells, 24 hrs; for DC50: concentration at which 50% of HPK1 was remaining, read-out: DC50 Category; for Dmax: Jurkat, maximum degradation vs DMSO vehicle control, read-out: Dmax Category. Type of experiment: cell-based. The essentials: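 Jurkat cells with CRISPR N-terminal HiBiT-tagged endogenous HPK1 treated 24 h at 37 °C with 11-point, 3.16-fold dilutions (10 uM to 0.1 nM final). HiBiT lytic luminescence gives % HPK1 remaining versus DMSO, with parental cells as background. Four-parameter fit yields DC50; Dmax = 100 minus lowest % remaining.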

T1 sequence (Q92918 whole entry): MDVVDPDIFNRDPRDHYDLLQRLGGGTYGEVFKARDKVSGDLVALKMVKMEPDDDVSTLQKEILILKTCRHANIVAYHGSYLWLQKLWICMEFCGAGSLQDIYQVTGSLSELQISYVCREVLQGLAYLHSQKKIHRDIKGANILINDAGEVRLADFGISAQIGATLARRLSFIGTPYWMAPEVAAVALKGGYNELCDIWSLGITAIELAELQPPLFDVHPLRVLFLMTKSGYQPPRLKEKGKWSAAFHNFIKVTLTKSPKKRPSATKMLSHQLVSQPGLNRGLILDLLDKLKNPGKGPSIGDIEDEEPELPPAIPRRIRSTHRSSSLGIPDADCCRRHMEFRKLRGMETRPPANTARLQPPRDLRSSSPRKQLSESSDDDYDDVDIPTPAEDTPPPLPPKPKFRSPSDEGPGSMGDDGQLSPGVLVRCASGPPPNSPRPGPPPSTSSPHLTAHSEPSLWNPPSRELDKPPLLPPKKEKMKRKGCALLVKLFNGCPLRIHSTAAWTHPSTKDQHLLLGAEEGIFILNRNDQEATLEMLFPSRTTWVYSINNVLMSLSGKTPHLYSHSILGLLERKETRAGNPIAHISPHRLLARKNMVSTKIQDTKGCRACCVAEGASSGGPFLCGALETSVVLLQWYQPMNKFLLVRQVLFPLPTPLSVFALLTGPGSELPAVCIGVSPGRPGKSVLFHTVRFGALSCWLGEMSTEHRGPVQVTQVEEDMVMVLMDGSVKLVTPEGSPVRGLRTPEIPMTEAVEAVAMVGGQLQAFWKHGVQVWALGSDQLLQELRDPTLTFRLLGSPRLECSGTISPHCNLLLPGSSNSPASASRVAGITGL

In the case of `CC(C)n1cnc2cc(-c3ccc4c(c3)N([C@H]3C[C@@H](N5CCCCC5)C3)C(=O)C43CCN(C(=O)C4CCN(C(=O)[C@H]5CC[C@H](N(C)c6ccc(C7CCC(=O)NC7=O)cn6)CC5)CC4)CC3)nc(NC3CC3)c21` (mixture of isomers) [Example 130, (3RS)-3-(6-{methyl[(1R,4R)-4-[4-({6-[4-(cyclopropylamino)-3-(propan-2-yl)-3H-imidazo[4,5-c]pyridin-6-yl]-2-oxo-1-[(1S,3S)-3-(piperidin-1-yl)cyclobutyl]-1,2-dihydrospiro[indole-3,4′-piperidin]-1′-yl}carbonyl)piperidine-1-carbonyl]cyclohexyl]amino}pyridin-3-yl)piperidine-2,6-dione], the DC50 is less than 0.1 µM and the Dmax lay within 50 to 70%.
Turning to `CC(C)n1cnc2cc(-c3ccc4c(c3)N([C@H]3C[C@@H](N5CCCCC5)C3)C(=O)C43CCN(C(=O)C4CCN(C(=O)[C@H]5CC[C@H](N(C)c6ccc(C7CCC(=O)NC7=O)cn6)CC5)CC4)CC3)nc(Nc3ccccc3F)c21` (mixture of isomers) [Example 131, (3RS)-3-(6-{methyl[(1R,4R)-4-{4-[(6-{4-[(2-fluorophenyl)amino]-3-(propan-2-yl)-3H-imidazo[4,5-c]pyridin-6-yl}-2-oxo-1-[(1S,3S)-3-(piperidin-1-yl)cyclobutyl]-1,2-dihydrospiro[indole-3,4′-piperidin]-1′-yl)carbonyl]piperidine-1-carbonyl}cyclohexyl]amino}pyridin-3-yl)piperidine-2,6-dione], the 50% degradation concentration (DC50) was less than 0.1 µM and the Dmax lay in the range of 70 to 85%.
On the same counts, the results for `CC(C)n1cnc2cc(-c3ccc4c(c3)N([C@H]3C[C@@H](N5CCCCC5)C3)C(=O)C43CCN(C(=O)C4CCN(C(=O)[C@H]5CC[C@H](N(C)c6ccc(C7CCC(=O)NC7=O)cn6)CC5)CC4)CC3)nc(Nc3ccncc3F)c21` (mixture of isomers) [Example 132, (3RS)-3-(6-{methyl[(1R,4R)-4-{4-[(6-{4-[(3-Fluoropyridin-4-yl)amino]-3-(propan-2-yl)-3H-imidazo[4,5-c]pyridin-6-yl}-2-oxo-1-[(1S,3S)-3-(piperidin-1-yl)cyclobutyl]-1,2-dihydrospiro[indole-3,4′-piperidin]-1′-yl)carbonyl]piperidine-1-carbonyl}cyclohexyl]amino}pyridin-3-yl)piperidine-2,6-dione] are less than 0.1 µM and 50 to 70%.
For the compound `CC(C)n1cnc2cc(-c3ccc4c(c3)N([C@H]3C[C@@H](N5CCCCC5)C3)C(=O)C43CCN(C(=O)C4CCN(C(=O)[C@H]5CC[C@H](N(C)c6cccc7c6C(=O)N(C6CCC(=O)NC6=O)C7=O)CC5)CC4)CC3)nc(NC3CC3)c21` (mixture of isomers) [Example 133, 2-[(3RS)-2,6-dioxopiperidin-3-yl]-4-{methyl[(1R,4R)-4-[4-({6-[4-(cyclopropylamino)-3-(propan-2-yl)-3H-imidazo[4,5-c]pyridin-6-yl]-2-oxo-1-[(1S,3S)-3-(piperidin-1-yl)cyclobutyl]-1,2-dihydrospiro[indole-3,4′-piperidin]-1′-yl}carbonyl)piperidine-1-carbonyl]cyclohexyl]amino}-2,3-dihydro-1H-isoindole-1,3-dione], the DC50 lay in the range of 0.5 to 1 µM and the Dmax was 50 to 70%.
On the same counts, the results for `CC(C)n1cnc2cc(-c3ccc4c(c3)N([C@H]3C[C@@H](N5CCCCC5)C3)C(=O)C43CCN(C(=O)[C@H]4CC[C@H](C(=O)N5CCC(N(C)c6ccc(C7CCC(=O)NC7=O)cc6)CC5)CC4)CC3)nc(NC3CC3)c21` (mixture of isomers) [Example 134, (3RS)-3-{4-[methyl({1-[(1R,4R)-4-({6-[4-(cyclopropylamino)-3-(propan-2-yl)-3H-imidazo[4,5-c]pyridin-6-yl]-2-oxo-1-[(1S,3S)-3-(piperidin-1-yl)cyclobutyl]-1,2-dihydrospiro[indole-3,4′-piperidin]-1′-yl}carbonyl)cyclohexanecarbonyl]piperidin-4-yl})amino]phenyl}piperidine-2,6-dione] are 0.1 to 0.5 µM and 50 to 70%.
`CC(C)n1cnc2cc(-c3ccc4c(c3)N([C@H]3C[C@@H](N5CCCCC5)C3)C(=O)C43CCN(C(=O)[C@H]4CC[C@H](C(=O)N5CCC(N(C)c6ccc(C7CCC(=O)NC7=O)cc6)CC5)CC4)CC3)nc(Nc3ccccc3F)c21` (mixture of isomers) [Example 135, (3RS)-3-{4-[methyl({1-[(1R,4R)-4-[(6-{4-[(2-fluorophenyl)amino]-3-(propan-2-yl)-3H-imidazo[4,5-c]pyridin-6-yl}-2-oxo-1-[(1S,3S)-3-(piperidin-1-yl)cyclobutyl]-1,2-dihydrospiro[indole-3,4′-piperidin]-1′-yl)carbonyl]cyclohexanecarbonyl]piperidin-4-yl})amino]phenyl}piperidine-2,6-dione]: the 50% degradation concentration (DC50) is less than 0.1 µM and the Dmax was in the range of 70 to 85%.
Turning to `CC(C)n1cnc2cc(-c3ccc4c(c3)N([C@H]3C[C@@H](N5CCCCC5)C3)C(=O)C43CCN(C(=O)[C@H]4CC[C@H](C(=O)N5CCC(N(C)c6ccc(C7CCC(=O)NC7=O)cc6)CC5)CC4)CC3)nc(Nc3ccncc3F)c21` (mixture of isomers) [Example 136, (3RS)-3-{4-[methyl({1-[(1R,4R)-4-[(6-{4-[(3-fluoropyridin-4-yl)amino]-3-(propan-2-yl)-3H-imidazo[4,5-c]pyridin-6-yl}-2-oxo-1-[(1S,3S)-3-(piperidin-1-yl)cyclobutyl]-1,2-dihydrospiro[indole-3,4′-piperidin]-11′-yl)carbonyl]cyclohexanecarbonyl]piperidin-4-yl})amino]phenyl}piperidine-2,6-dione], the half-maximal degradation concentration (DC50) is less than 0.1 µM and the maximal degradation (Dmax) lay within 70 to 85%.
For `CC(C)n1cnc2cc(-c3ccc4c(c3)N([C@H]3C[C@@H](N5CCCCC5)C3)C(=O)C43CCN(C(=O)[C@H]4CC[C@H](C(=O)N5CCC(N(C)c6ccc(C7CCC(=O)NC7=O)cn6)CC5)CC4)CC3)nc(NC3CC3)c21` (mixture of isomers) [Example 137, (3RS)-3-{6-[methyl({1-[(1R,4R)-4-({6-[4-(cyclopropylamino)-3-(propan-2-yl)-3H-imidazo[4,5-c]pyridin-6-yl]-2-oxo-1-[(1S,3S)-3-(piperidin-1-yl)cyclobutyl]-1,2-dihydrospiro[indole-3,4′-piperidin]-1′-yl}carbonyl)cyclohexanecarbonyl]piperidin-4-yl})amino]pyridin-3-yl}piperidine-2,6-dione], in that order: less than 0.1 µM and 70 to 85%.
On the same counts, the results for `CC(C)n1cnc2cc(-c3ccc4c(c3)N([C@H]3C[C@@H](N5CCCCC5)C3)C(=O)C43CCN(C(=O)[C@H]4CC[C@H](C(=O)N5CCC(N(C)c6ccc(C7CCC(=O)NC7=O)cn6)CC5)CC4)CC3)nc(Nc3ccccc3F)c21` (mixture of isomers) [Example 138, (3RS)-3-{6-[methyl({1-[(1R,4R)-4-[(6-{4-[(2-fluorophenyl)amino]-3-(propan-2-yl)-3H-imidazo[4,5-c]pyridin-6-yl}-2-oxo-1-[(1S,3S)-3-(piperidin-1-yl)cyclobutyl]-1,2-dihydrospiro[indole-3,4′-piperidin]-1′-yl)carbonyl]cyclohexanecarbonyl]piperidin-4-yl})amino]pyridin-3-yl}piperidine-2,6-dione] are less than 0.1 µM and greater than 85%.
For `CC(C)n1cnc2cc(-c3ccc4c(c3)N([C@H]3C[C@@H](N5CCCCC5)C3)C(=O)C43CCN(C(=O)[C@H]4CC[C@H](C(=O)N5CCC(N(C)c6ccc(C7CCC(=O)NC7=O)cn6)CC5)CC4)CC3)nc(Nc3ccncc3F)c21` (mixture of isomers) [Example 139, (3RS)-3-{6-[methyl({1-[(1R,4R)-4-[(6-{4-[(3-Fluoropyridin-4-yl)amino]-3-(propan-2-yl)-3H-imidazo[4,5-c]pyridin-6-yl}-2-oxo-1-[(1S,3S)-3-(piperidin-1-yl)cyclobutyl]-1,2-dihydrospiro[indole-3,4′-piperidin]-1′-yl)carbonyl]cyclohexanecarbonyl]piperidin-4-yl})amino]pyridin-3-yl}piperidine-2,6-dione], in that order: less than 0.1 µM and 70 to 85%.
For the compound `CC(C)n1cnc2cc(-c3ccc4c(c3)N([C@H]3C[C@@H](N5CCCCC5)C3)C(=O)C43CCN(C(=O)c4ccc(C(=O)N5CCC(N(C)c6ccc(C7CCC(=O)NC7=O)cn6)CC5)cc4)CC3)nc(Nc3ccccc3F)c21` (mixture of isomers) [Example 140, (3RS)-3-{6-[(1-{4-[(6-{4-[(2-fluorophenyl)amino]-3-(propan-2-yl)-3H-imidazo[4,5-c]pyridin-6-yl}-2-oxo-1-[(1S,3S)-3-(piperidin-1-yl)cyclobutyl]-1,2-dihydrospiro[indole-3,4′-piperidin]-1′-yl)carbonyl]benzoyl}piperidin-4-yl)(methyl)amino]pyridin-3-yl}piperidine-2,6-dione], the DC50 was 0.5 to 1 µM and the Dmax was in the range of 50 to 70%.
Consider `CC(C)n1cnc2cc(-c3ccc4c(c3)N([C@H]3C[C@@H](N5CCCCC5)C3)C(=O)C43CCN(C(=O)c4ccc(C(=O)N(C)C5CCN(c6ccc(C7CCC(=O)NC7=O)cn6)CC5)cc4)CC3)nc(Nc3ccccc3F)c21` (mixture of isomers) [Example 141, N-(1-{5-[(3RS)-2,6-dioxopiperidin-3-yl]pyridin-2-yl}piperidin-4-yl)-4-[(6-{4-[(2-Fluorophenyl)amino]-3-(propan-2-yl)-3H-imidazo[4,5-c]pyridin-6-yl}-2-oxo-1-[(1S,3S)-3-(piperidin-1-yl)cyclobutyl]-1,2-dihydrospiro[indole-3,4′-piperidin]-1′-yl)carbonyl]-N-methylbenzamide], for which the half-maximal degradation concentration (DC50) was in the range of 0.5 to 1 µM and the Dmax was 50 to 70%.

The term DC50 denotes the concentration giving 50% degradation. Broadly, the Dmax is the largest share of the target that was removed.
